Data: patent US20200199537A1, “LIVER ORGANOID COMPOSITIONS AND METHODS OF MAKING AND USING SAME” (Children's Hospital Medical Center, priority 2017, published 2020)
Like-named read-outs stand apart in the source and are kept apart here. Blank lines part the entries; values can stand above or below the compound they belong to.

What was measured:
[1] = test system: CLF excretion into iPSC-liver organoids; details: human
[2] = test system: bile transport activity (efflux of fluorescein diacetate) in human liver organoids
MRP2 = MRP2 (Homo sapiens, UniProt Q92887); details: previously reported; cited from earlier work
Chain of MRP2 (Q92887 whole entry): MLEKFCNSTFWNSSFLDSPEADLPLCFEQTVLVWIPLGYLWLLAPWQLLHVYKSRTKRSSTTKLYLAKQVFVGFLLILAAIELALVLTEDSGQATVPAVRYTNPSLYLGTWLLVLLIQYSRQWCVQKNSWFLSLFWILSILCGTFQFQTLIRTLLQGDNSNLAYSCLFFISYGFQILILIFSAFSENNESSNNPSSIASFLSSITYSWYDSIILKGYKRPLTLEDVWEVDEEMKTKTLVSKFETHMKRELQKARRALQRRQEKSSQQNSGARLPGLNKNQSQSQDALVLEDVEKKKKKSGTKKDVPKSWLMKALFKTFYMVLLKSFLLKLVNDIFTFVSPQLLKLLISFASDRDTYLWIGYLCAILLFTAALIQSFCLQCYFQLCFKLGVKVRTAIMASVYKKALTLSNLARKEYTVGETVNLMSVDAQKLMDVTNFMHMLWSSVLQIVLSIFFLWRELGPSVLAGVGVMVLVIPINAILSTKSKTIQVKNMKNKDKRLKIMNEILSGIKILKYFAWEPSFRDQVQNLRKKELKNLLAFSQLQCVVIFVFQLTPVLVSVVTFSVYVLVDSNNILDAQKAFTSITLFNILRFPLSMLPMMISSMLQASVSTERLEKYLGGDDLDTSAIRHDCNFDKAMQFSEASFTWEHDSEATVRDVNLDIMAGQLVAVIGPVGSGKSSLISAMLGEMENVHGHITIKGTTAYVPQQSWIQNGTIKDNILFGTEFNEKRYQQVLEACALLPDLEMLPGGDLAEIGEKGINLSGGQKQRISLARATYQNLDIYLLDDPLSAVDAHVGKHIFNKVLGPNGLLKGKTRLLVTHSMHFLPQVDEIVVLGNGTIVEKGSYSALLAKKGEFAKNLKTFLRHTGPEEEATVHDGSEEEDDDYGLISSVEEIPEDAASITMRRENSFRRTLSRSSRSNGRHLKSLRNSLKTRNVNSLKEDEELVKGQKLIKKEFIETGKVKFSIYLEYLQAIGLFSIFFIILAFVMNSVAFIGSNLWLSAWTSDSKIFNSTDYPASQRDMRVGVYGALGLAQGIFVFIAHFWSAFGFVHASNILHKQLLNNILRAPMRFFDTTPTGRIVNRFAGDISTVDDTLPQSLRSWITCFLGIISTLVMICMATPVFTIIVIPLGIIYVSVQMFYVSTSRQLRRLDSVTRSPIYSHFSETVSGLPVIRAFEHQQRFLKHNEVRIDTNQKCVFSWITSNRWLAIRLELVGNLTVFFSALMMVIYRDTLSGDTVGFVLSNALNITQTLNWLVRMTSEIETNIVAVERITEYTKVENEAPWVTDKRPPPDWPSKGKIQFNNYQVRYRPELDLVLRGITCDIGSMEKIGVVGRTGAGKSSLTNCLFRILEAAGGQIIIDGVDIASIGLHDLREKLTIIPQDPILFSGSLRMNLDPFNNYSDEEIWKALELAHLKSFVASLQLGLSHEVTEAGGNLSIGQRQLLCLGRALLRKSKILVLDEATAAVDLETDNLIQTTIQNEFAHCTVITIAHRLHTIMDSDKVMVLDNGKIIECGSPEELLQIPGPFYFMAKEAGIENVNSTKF

human liver organoids [3] = assay: Lipid accumulation in organoids after oleic acid treatment; assay type: cell-based; details: 3 days after treatment, 800 μM
Procedure: Images were captured sequentially using fluorescent microscopy BZ-9000. […] The following regents or kits were used: BODIPY® 493/503 for lipids (Thermo Fisher Scientific), and SiR Actin Kit for cytoskeleton (USA Scientific, FL, USA), CellROX® Green Reagent for ROS (Fisher Scientific), TMRM (Thermo Fisher Scientific) for mitochondria. […] ROS production, mitochondria size and number were analyzed by IMARIS8.

[4] = test system: lipotoxic human liver organoids; assay: Evaluation of viability in organoids on vulnerable (lipotoxic, oleic acid) condition; assay type: cell-based
Procedure: Next, 50 μM of Troglitazone was treated with or without 50 μM NAC for 24 h. […] Images were captured sequentially using fluorescent microscopy BZ-9000.

human liver organoids [5] = details: for cell viability: human, 50 μM

efflux of FD [2]: significantly decreased
Compound: COc1ccccc1Oc1c(NS(=O)(=O)c2ccc(C(C)(C)C)cc2)nc(-c2ncccn2)nc1OCCO [Bosentan]
specificity of drug induced cholestasis to CYP2C9*2 iPSC lines [1]: specific to CYP2C9 poor metabolizer donor-derived HLO
export by efflux transporter MRP2 (MRP2): mediates export

Compound: CCCCCCCC/C=C\CCCCCCCC(=O)O [oleic acid]
lipid accumulation in organoids (human liver organoids [3]): intense

Compound: CC(=O)N[C@@H](CS)C(=O)O [NAC, N-acetylcysteine]
cell viability (rescue from Troglitazone toxicity) ([4]; lipotoxic condition, 50 μM Troglitazone with 50 μM NAC, 24 h): significantly improved

Compound: CN(CCOc1ccc(CC2SC(=O)NC2=O)cc1)c1ccccn1 (centres unmarked) [Rosiglitazone]
vulnerability of steatotic organoids to drug toxicity [4]: vulnerable

efflux of FD [2]: significantly decreased
Compound: Cc1c(C)c2c(c(C)c1O)CCC(C)(COc1ccc(CC3SC(=O)NC3=O)cc1)O2 (centres unmarked) [Troglitazone]
cell viability compared to control ([4]; lipotoxic condition (800 μM oleic acid 3 days), 50 μM drug, 24 h): −40%
organoid morphology after treatment ([4]; lipotoxic condition, 24 h): massive fragmentation of organoids
cell viability relative to TOL, DICLO and BOS (human liver organoids [5]): significantly lowered
cell viability (human liver organoids [5]; 24 h): 85%
cell viability (human liver organoids [5]; 72 h): 67%

efflux of FD [2]: significantly decreased
Compound: CCc1nn(CCCN2CCN(c3cccc(Cl)c3)CC2)c(=O)n1CCOc1ccccc1 [Nefazodone]
cell viability relative to TOL, DICLO and BOS (human liver organoids [5]): significantly lowered
